Reference: patent US4731109A, “Herbicidal 2-haloacetanilides” (Monsanto Company, priority 1982, dated 1988)

What was measured:
Quackgrass [1] = assay: Greenhouse pre-emergence GR15/GR85 selectivity test; type: in vivo; conditions: Table IV
From the text: (§1) A good grade of top soil is placed in aluminum pans and compacted to a depth of three-eighths to one-half inch from the top of the pan. On the top of the soil is placed a number of seeds or vegetative propagules of various plant species. The soil required to level fill the pans after seeding or adding vegetative propagules is weighed into a pan. The soil and a known amount of the active ingredient applied in a solvent or as a wettable powder suspension are thoroughly mixed, and used to cover the prepared pans. […] As an alternative procedure, the overhead irrigation may be omitted. Observations are made about 2-3 weeks after seeding and treatment.
(§2) A further guide to the effectiveness of a chemical as a selective herbicide is the "selectivity factor" ("SF") for a herbicide in given crops and weeds. The selectivity factor is a measure of the relative degree of crop safety and weed injury and is expressed in terms of the GR15 /GR85 ratio, i.e., the GR15 rate for the crop divided by the GR85 rate for the weed, both rates in kg/ha (lb/A). In the tables below, selectivity factors are shown in parenthesis following the GR85 rate for each weed; the symbol "NS" indicates "non-selective". Marginal or undetermined selectivity is indicated by a dash (--).
(§3) These weeds are commonly associated with such major crops as corn and soybeans. […] The test procedure was the same as described for Tables II and III but modified by the application of an initial overhead irrigation equivalent to 1/4" (0.64 cm) rainfall; subsequent watering was accomplished by subirrigation. "NS" means non-selective within the test limits.
(§4) Unless otherwise noted; greenhouse tests in Table VI and in other tables below involved herbicide treatments by soil incorporation and an initial overhead irrigation followed by subirrigation as described above.

Yellow Nutsedge = assay: as above; type: in vivo; conditions: Table IV
From the text: as §1, §2, §3, §4

corn = assay: as above; type: in vivo; conditions: Table IV
From the text: (§5) A good grade of top soil is placed in aluminum pans and compacted to a depth of three-eighths to one-half inch from the top of the pan. On the top of the soil is placed a number of seeds or vegetative propagules of various plant species. The soil required to level fill the pans after seeding or adding vegetative propagules is weighed into a pan. The soil and a known amount of the active ingredient applied in a solvent or as a wettable powder suspension are thoroughly mixed, and used to cover the prepared pans. After treatment, the pans are given an initial overhead irrigation of eater, equivalent to one-fourth inch (0.64 cm) rainfall, then watered by subirrigation as need to give adequate moisture for germination and growth. As an alternative procedure, the overhead irrigation may be omitted. Observations are made about 2-3 weeks after seeding and treatment.
(§6) In the discussion and tables of data below, reference is made to herbicide application rates symbolized as "GR15 " and "GR85 "; these rates are given in kilograms per hectare (kg/ha) which are convertible into pounds per acre (lbs/A) by dividing the kg/ha rate by 1.12.
as §2
In Table IV pre-emergence herbicidal activity data are presented comparing the relative efficacy of the invention compounds and said prior art compounds as selective herbicides against the resistant and troublesome perennial weeds quackgrass and yellow nutsedge in soybeans and corn, respectively. These weeds are commonly associated with such major crops as corn and soybeans. The test data in Table IV were obtained under identical procedural conditions and represent two replicate runs (except for the compound of Example 9 which was present in one comparative test). The test procedure was the same as described for Tables II and III but modified by the application of an initial overhead irrigation equivalent to 1/4" (0.64 cm) rainfall; subsequent watering was accomplished by subirrigation. "NS" means non-selective within the test limits.
(§7) Additionally, pre-emergence herbicidal data from other tests have established that compounds according to this invention also selectively suppress quackgrass, yellow nutsedge and/or other weeds in one or more of the crops cotton, peanuts, bush beans and/or rape. For example, in Table VI are presented data showing the herbicidal selectivity of the compounds of Examples 1 and 2 against quackgrass in rape and snap beans. Unless otherwise noted; greenhouse tests in Table VI and in other tables below involved herbicide treatments by soil incorporation and an initial overhead irrigation followed by subirrigation as described above.

rape = assay: as above; type: in vivo; conditions: Table XV
From the text: as §5, §6, §2, §7
(§8) In another greenhouse test, the compounds of Examples 3-5, 9 and 10 were tested for their herbicidal efficacy against a variety of resistant annual and perennial weeds in rape.

purple nutsedge = assay: as above; type: in vivo; conditions: Table XV
From the text: as §5, §6, §2, §7
In other greenhouse tests, compounds according to this invention have shown selective control of a variety of annual and perennial weeds in various crops. As further illustrative, the compound of Example 1 selectively controlled purple nutsedge in both corn nd soybeans, the respective crop/weed GR15 /GR85 ratios (expressed in kg/ha) being 0.67/0.25 (S.F.=2.7) in corn and 1.1/0.25 (S.F.=4.5) in soybeans. The compound of Example 8 has shown selective control of yellow nutsedge and quackgrass in corn and soybeans. The respective crop/yellownutsedge GR15 /GR85 ratios being >2.2/0.95 (S.F.=2.5) in corn; 2.2/0.5 (SF=4.5) in soybeans and the respective GR15 /GR85 ratios for both corn and soybeans in quackgrass being >2.2/0.5 (S.F.=4.5). In a test against yellow nutsedge in cotton, the GR15 /GR85 ratio (average of two replicates) was 2.0/0.95 (S.F.=2).
as §8

red rice = assay: as above; type: in vivo; conditions: Table XVI
From the text: as §1, §2, §4

wild proso millet = assay: as above; type: in vivo, wild proso millet (panicum milicaeum); conditions: Table XVI
From the text: as §1, §2, §4

Quackgrass [2] = assay: Herbicidal effect in a variety of soil types; type: in vivo; conditions: Table XVII B; for selectivity factor (GR15/GR85): in soybeans
soybeans = assay: Herbicidal effect in a variety of soil types; type: in vivo; conditions: Table XVII B

SMILES: CCCOCN(C(=O)CCl)c1c(C)cccc1C(F)(F)F [Example 3, N--(n-propoxymethyl)-2'-trifluoromethyl-6'-methyl-2-chloroacetanilide]
- GR85 (Quackgrass [1]; Replicate #1): 0.12 Kg/Ha
- GR85 (Quackgrass [1]; Replicate #2): 0.13 Kg/Ha
- selectivity factor (GR15/GR85) (Quackgrass [1]; quackgrass in corn, Replicate #1): 6.5
- selectivity factor (GR15/GR85) (Quackgrass [1]; quackgrass in corn, Replicate #2): 5.5
- selectivity factor (GR15/GR85) (Quackgrass [1]; quackgrass in soybeans, Replicate #1): 9
- selectivity factor (GR15/GR85) (Quackgrass [1]; quackgrass in soybeans, Replicate #2): 8.5
- GR85 (Yellow Nutsedge; Replicate #1): 0.11 Kg/Ha
- GR85 (Yellow Nutsedge; Replicate #2): 0.21 Kg/Ha
- selectivity factor (GR15/GR85) (Yellow Nutsedge; yellow nutsedge in corn, Replicate #1): 7
- selectivity factor (GR15/GR85) (Yellow Nutsedge; yellow nutsedge in corn, Replicate #2): 3.5
- selectivity factor (GR15/GR85) (Yellow Nutsedge; yellow nutsedge in soybeans, Replicate #1): 10
- selectivity factor (GR15/GR85) (Yellow Nutsedge; yellow nutsedge in soybeans, Replicate #2): 5
- GR15 (corn; Replicate #1): 0.78 Kg/Ha
- GR15 (corn; Replicate #2): 0.73 Kg/Ha
- GR15 Rate (rape): 0.90 Kg/Ha
- GR85 Rate (purple nutsedge): 0.12 Kg/Ha
- selectivity factor (GR15/GR85) (purple nutsedge; in rape): 7.5
- GR85 Rate (red rice): 0.37 Kg/Ha
- selectivity factor (GR15/GR85) (red rice; in lima beans): 1.3
- selectivity factor (GR15/GR85) (red rice; in peanuts): > 3
- GR85 Rate (wild proso millet): 0.27 Kg/Ha
- selectivity factor (GR15/GR85) (wild proso millet; in lima beans): 1.8
- selectivity factor (GR15/GR85) (wild proso millet; in peanuts): > 4.2
- GR85 (Quackgrass [2]; Florida muck): 1.1 Kg/Ha
- GR85 (Quackgrass [2]; Florida sand): 0.72 Kg/Ha
- GR85 (Quackgrass [2]; Wabash silty clay): 0.22 Kg/Ha
- selectivity factor (GR15/GR85) (Quackgrass [2]; Florida muck): > 2
- selectivity factor (GR15/GR85) (Quackgrass [2]; Florida sand): 2.5
- selectivity factor (GR15/GR85) (Quackgrass [2]; Wabash silty clay): 9
- GR15 (soybeans; Florida muck): > 2.2 Kg/Ha
- GR15 (soybeans; Florida sand): 2.0 Kg/Ha
- GR15 (soybeans; Wabash silty clay): 2.0 Kg/Ha
